pKi: −log10 of the molar value.
What was measured:
[1] = target: T1, Neutrophil elastase (Homo sapiens) (UniProt P08246)
T1 sequence (whole entry): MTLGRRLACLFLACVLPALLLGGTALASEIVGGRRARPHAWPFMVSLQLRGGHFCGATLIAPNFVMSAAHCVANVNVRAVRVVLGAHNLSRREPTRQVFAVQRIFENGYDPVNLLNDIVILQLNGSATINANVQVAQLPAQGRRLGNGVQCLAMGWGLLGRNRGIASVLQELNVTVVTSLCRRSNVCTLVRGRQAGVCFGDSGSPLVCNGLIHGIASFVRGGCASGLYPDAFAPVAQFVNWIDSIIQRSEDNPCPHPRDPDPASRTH
Description: Inhibition of human leukocyte elastase (HLE) expressed as K reactivation rate

[2] = target: T1, Neutrophil elastase (Homo sapiens); remark: listed apart in the source
Description: Inhibition of human leukocyte elastase (HLE) expressed as K inactivation rate

Neutrophil elastase = target: T2, Neutrophil elastase (Homo sapiens, UniProt P08246); assay: Potency of Inhibition of human leukocyte elastase (HLE) expressed as apparent binding constant
T2 sequence (P08246 whole entry): T1 sequence (whole entry)

| SMILES | Kreact [1] [s⁻¹] | K inact [2] [M⁻¹ s⁻¹] | pKi (Neutrophil elastase) |
| --- | --- | --- | --- |
| CCOc1cccc2c1C(=O)N(CSc1nnnn1-c1ccccc1)S2(=O)=O | 0.00014 | 45300 | – |
| CC(C)(C)c1cccc2c1C(=O)N(CSc1nnnn1-c1ccccc1)S2(=O)=O | – | – | 5.70 |
| CC(C)Oc1cccc2c1C(=O)N(CSc1nnnn1-c1ccccc1)S2(=O)=O | 0.00016 | 8900 | – |
| Cn1cnnc1SCN1C(=O)c2ccccc2S1(=O)=O | 4.7e-05 | 190 | – |
| Cn1nnnc1SCN1C(=O)c2ccccc2S1(=O)=O | 0.0001 | 1000 | – |
| O=C1c2ccccc2S(=O)(=O)N1CSc1nnnn1C1CCCCC1 | 0.0001 | 2500 | – |
| CC(=O)OCN1C(=O)c2ccccc2S1(=O)=O | 0.0001 | 630 | – |
| O=C1c2c(-c3ccccc3)cccc2S(=O)(=O)N1CSc1nnnn1-c1ccccc1 | 0.0005 | 5800 | – |
| O=C1c2c(Br)cccc2S(=O)(=O)N1CSc1nnnn1-c1ccccc1 | 0.00036 | – | – |

Reference: ChEMBL document CHEMBL1151501, “A benzisothiazolone class of potent, selective mechanism-based inhibitors of human leukocyte elastase” (Bioorg Med Chem Lett, 1994)
